Target: T1, hROMK (hKir1.1) (Homo sapiens, UniProt P48048)
T1 construct: expressed in transfected cells
T1 sequence (P48048 1-391): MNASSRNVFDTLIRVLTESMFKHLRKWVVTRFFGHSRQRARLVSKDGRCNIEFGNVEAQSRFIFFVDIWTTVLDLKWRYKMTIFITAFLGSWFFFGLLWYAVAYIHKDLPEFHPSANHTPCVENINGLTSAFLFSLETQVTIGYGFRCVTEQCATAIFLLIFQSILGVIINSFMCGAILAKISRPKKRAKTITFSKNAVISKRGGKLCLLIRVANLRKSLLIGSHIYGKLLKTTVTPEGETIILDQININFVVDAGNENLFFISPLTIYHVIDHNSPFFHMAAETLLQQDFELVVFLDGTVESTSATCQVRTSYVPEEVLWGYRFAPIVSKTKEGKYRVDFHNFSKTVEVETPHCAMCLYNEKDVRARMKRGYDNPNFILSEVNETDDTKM
Assay: Thallium Flux Assay
Format: cell-based
Conditions: HEK293 cells stably expressing hROMK (hKir1.1), FLIPR-Tetra; read-out: Thallium Flux IC50
Procedure, shortened: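 HEK293 cells stably expressing hROMK, loaded with FluxOR dye 90 min at ambient temperature, then compound 30 min with 0.3 mM ouabain in probenecid buffer pH 7.4.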

SMILES | IC50
COc1cc([C@H]2CN3CCN(C(=O)Cc4ccc(-n5cnnn5)nc4)C[C@H]3CO2)cc(F)c1C#N [Example 113, 2-fluoro-6-methoxy-4-[(3S,9aS)-8-{[6-(1H-tetrazol-1-vl)pvridin-3-yl]acetyl}octahydropyrazino[2,1-c][1,4]oxazin-3-yl]benzonitrile] | 120 nM
Cc1c(C#N)cccc1[C@@H]1CN2CCN(C(=O)Cc3cnc(-n4cnnn4)nc3)C[C@@H]2CO1 [Example 116, 2-methyl-3-[(3R,9aR)-8-{[2-(1H-tetrazol-1-yl)pyrimidin-5-yl]acetyl}octahydropyrazino[2,1-c] [1,4]oxazin-3-yl]benzonitrile] | 330 nM
Cc1nc(-n2cnnn2)ncc1CC(=O)N1CCN2C[C@@H](c3ccc(F)c(C#N)c3C)OC[C@H]2C1 [Example 120, 6-fluoro-2-methyl-3-[(3R9aR)-8-{[4-methyl-2-(1H-tetrazol-1-yl)pyrimidin-5-yl]acetyl}octahydropyrazino[2,1-c][1,4]oxazin-3-yl]benzonitrile] | 200 nM
Cc1c([C@@H]2CN3CCN(C(=O)Cc4cnc(-n5cnnn5)nc4)C[C@@H]3CO2)ccc2c1COC2=O [Example 122, 4-methyl-5-[(3R,9aR)-8-{[2-(1H-tetrazol-1-yl)pyrimidin-5-yl]acetyl}octahydropyrazino[2,1-c][1,4]oxazin-3-yl]-2-benzofuran-1(3H)-one] | 390 nM
COc1cc(-n2cnnn2)cnc1CC(=O)N1CCN2C[C@@H](c3ccc(F)c(C#N)c3C)OC[C@H]2C1 [Example 124, 6-fluoro-3-[(3R,9aR)-8-{[3-methoxy-5-(1H-tetrazol-1-vl)pvridin-2-yl]acetyl}octahydropyrazino[2,1-c][1,4]oxazin-3-yl]-2-methylbenzonitrile] | 330 nM
N#Cc1c(F)ccc([C@H]2CN3CCN(C(=O)Cc4cnc(-n5cnnn5)nc4)C[C@@H]3CO2)c1Cl [Example 126, 2-chloro-6-fluoro-3-[(3S,9aR)-8-{[2-(1H-tetrazol-1-yl)pyrimidin-5-yl]acetyl}octahydropyrazino[2,1-c][1,4]oxazin-3-yl]benzonitrile] | 140 nM
Cc1nc(CC(=O)N2CCN3C[C@@H](c4ccc(F)c(C#N)c4C)OC[C@@H]3C2)ccc1-n1cnnn1 [Example 128, 6-fluoro-2-methyl-3-[(3R,9aS)-8-{[6-methyl-5-(1H-tetrazol-1-vl)pvridin-2-yl]acetyl}octahydropyrazino[2,1-c][1,4]oxazin-3-yl]benzonitrile] | 180 nM
Cc1cc(CC(=O)N2CCN3C[C@@H](c4ccc(F)c(C#N)c4C)OC[C@H]3C2)ncc1-n1cnnn1 [Example 129, 6-fluoro-2-methyl-3-[(3R,9aR)-8-{[4-methyl-5-(1H-tetrazol-1-yl)pyridin-2-yl]acetyl}octahydropyrazino[2,1-c][1,4]oxazin-3-yl]benzonitrile] | 250 nM
Cc1nc(CC(=O)N2CCN3C[C@H](c4ccc(F)c(C#N)c4C)OC[C@H]3C2)ccc1-n1cnnn1 [Example 131, 6-fluoro-2-methyl-3-[(3S,9aR)-8-{[6-methyl-5-(1H-tetrazol-1-vl)pvridin-2-yl]acetul}octahydropyrazino[2,1-c][1,4]oxazin-3-yl]benzonitrile] | 200 nM
Cc1cc(CC(=O)N2CCN3C[C@H](c4ccc(F)c(C#N)c4C)OC[C@H]3C2)cnc1-n1cnnn1 [Example 134, 6-fluoro-2-methyl-3-[(3S,9aR)-8-{[5-methyl-6-(1H-tetrazol-1-yl)pyridin-3-yl]acetyl}octahydropyrazino[2,1-c][1,4]oxazin-3-yl]benzonitrile] | 280 nM
Cc1nc(-n2cnnn2)ncc1CC(=O)N1CCN2C[C@@H](c3ccc(F)c(C#N)c3Cl)OC[C@H]2C1 [Example 138, 2-chloro-6-fluoro-3-[(3R,9aR)-8-{[4-methyl-2-(1H-tetrazol-1-vl)pvrimidin-5-yl]acetyl}octahydropyrazino[2,1-c][1,4]oxazin-3-yl]benzonitrile] | 140 nM
COc1c([C@H]2CN3CCN(C(=O)Cc4cnc(-n5cnnn5)nc4)C[C@H]3CO2)ccc(F)c1C#N [Example 139, 6-fluoro-2-methoxy-3-[(3S,9aS)-8-{[2-(1H-tetrazol-1-vl)pvrimidin-5-yl]acetyl}octahydropyrazino[2,1-c][1,4]oxazin-3-yl]benzonitrile] | 160 nM
COc1c([C@@H]2CN3CCN(C(=O)Cc4cnc(-n5cnnn5)nc4)C[C@H]3CO2)ccc(F)c1C#N [Example 140, 6-fluoro-2-methoxy-3-[(3R,9aS)-8-{[2-(1H-tetrazol-1-vl)pvrimidin-5-yl]acetyl}octahydropyrazino[2,1-c][1,4]oxazin-3-yl]benzonitrile] | 120 nM
N#Cc1cc([C@@H]2CN3CCN(C(=O)Cc4cnc(-n5cnnn5)nc4)C[C@@H]3CO2)ccc1F [Example 141, 2-fluoro-5-[(3R,9aR)-8-{[2-(1H-tetrazol-1-yl)pyrimidin-5-yl]acetyl}octahydropyrazino[2,1-c][1,4]oxazin-3-yl]benzonitrile] | 300 nM

Same assay, conditions: Thallium Flux IC50

SMILES | IC50
COc1cc([C@@H]2CN3CCN(C(=O)Cc4ccc(-n5cnnn5)nc4)C[C@H]3CO2)cc(F)c1C#N [Example 114, 2-fluoro-6-methoxy-4-[(3R,9aS)-8-{[6-(1H-tetrazol-1-vl)pvridin-3-yl]acetyl}octahydropyrazino[2,1-c][1,4]oxazin-3-yl]benzonitrile] | 110 nM
N#Cc1c(F)cc([C@@H]2CN3CCN(C(=O)Cc4cnc(-n5cnnn5)nc4)C[C@@H]3CO2)cc1F [Example 115, 2,6-difluoro-4-[(3R,9aR)-8-{[2-(1H-tetrazol-1-yl)pyrimidin-5-yl]acetyl}octahydropyrazino[2,1-c][1,4]oxazin-3-yl]benzonitrile] | 270 nM
Cc1c(C#N)cccc1[C@@H]1CN2CCN(C(=O)Cc3ccc(-n4cnnn4)nc3)C[C@@H]2CO1 [Example 117, 2-methyl-3-[(3R,9aR)-8-{[6-(1H-tetrazol-1-yl)pyridin-3-yl]acetyl}octahydropyrazino[2,1-c] [1,4]oxazin-3-yl]benzonitrile] | 220 nM
Cc1nc(-n2cnnn2)ncc1CC(=O)N1CCN2C[C@@H](c3ccc(F)c(C#N)c3C)OC[C@@H]2C1 [Example 118, 6-fluoro-2-methyl-3-[(3R,9aS)-8-{[4-methyl-2-(1H-tetrazol-1-vl)pvrimidin-5-yl]acetyl}octahydropyrazino[2,1-c][1,4]oxazin-3-yl]benzonitrile] | 120 nM
Cc1nc(-n2cnnn2)ncc1CC(=O)N1CCN2C[C@H](c3ccc(F)c(C#N)c3C)OC[C@H]2C1 [Example 119, 6-fluoro-2-methyl-3-[(3S,9aR)-8-{[4-methyl-2-(1H-tetrazol-1-vl)pvrimidin-5-yl]acetyl}octahydropyrazino[2,1-c][1,4]oxazin-3-yl]benzonitrile] | 330 nM
Cc1c([C@@H]2CN3CCN(C(=O)Cc4cnc(-n5cnnn5)cn4)C[C@@H]3CO2)ccc2c1COC2=O [Example 123, 4-methyl-5-[(3R,9aR)-8-{[5-(1H-tetrazol-1-yl)pyrazin-2-yl]acetyl}octahydropyrazino[2,1-c] [1,4]oxazin-3-yl]-2-benzofuran-1(3H)-one] | 690 nM
N#Cc1c(F)ccc([C@@H]2CN3CCN(C(=O)Cc4cnc(-n5cnnn5)nc4)C[C@@H]3CO2)c1Cl [Example 125, 2-chloro-6-fluoro-3-[(3R,9aR)-8-{[2-(1H-tetrazol-1-yl)pyrimidin-5-yl]acetyl}octahydropyrazino[2,1-c][1,4]oxazin-3-yl]benzonitrile] | 60 nM
Cc1nc(CC(=O)N2CCN3C[C@H](c4ccc(F)c(C#N)c4C)OC[C@@H]3C2)ccc1-n1cnnn1 [Example 127, 6-fluoro-2-methyl-3-[(3S,9aS)-8-{[6-methyl-5-(1H-tetrazol-1-vl)pvridin-2-yl]acetyl}octahydropyrazino[2,1-c][1,4]oxazin-3-yl]benzonitrile] | 90 nM
Cc1cc(CC(=O)N2CCN3C[C@H](c4ccc(F)c(C#N)c4C)OC[C@@H]3C2)ncc1-n1cnnn1 [Example 130, 6-fluoro-2-methyl-3-[(3S,9aS)-8-{[4-methyl-5-(1H-tetrazol-1-yl)pyridin-2-yl]acetyl}octahydropyrazino[2,1-c][1,4]oxazin-3-yl]benzonitrile] | 190 nM
COc1ccc([C@@H]2CN3CCN(C(=O)Cc4cnc(-n5cnnn5)nc4)C[C@H]3CO2)c(C)c1C#N [Example 135, 6-methoxy-2-methyl-3-[(3R,9aS)-8-{[2-(1H-tetrazol-1-vl)pvrimidin-5-yl]acetyl}octahydropyrazino[2,1-c][1,4]oxazin-3-yl]benzonitrile] | 330 nM
N#Cc1c(F)ccc([C@@H]2CN3CCN(C(=O)Cc4cnc(-n5cnnn5)nc4)C[C@H]3CO2)c1Cl [Example 136, 2-chloro-6-fluoro-3-[(3R,9aS)-8-{[2-(1H-tetrazol-1-yl)pyrimidin-5-yl]acetyl}octahydropyrazino[2,1-c][1,4]oxazin-3-yl]benzonitrile] | 40 nM
N#Cc1c(F)ccc([C@H]2CN3CCN(C(=O)Cc4cnc(-n5cnnn5)nc4)C[C@H]3CO2)c1Cl [Example 137, 2-chloro-6-fluoro-3-[(3S,9aS)-8-{[2-(1H-tetrazol-1-yl)pyrimidin-5-yl]acetyl}octahydropyrazino[2,1-c][1,4]oxazin-3-yl]benzonitrile] | 60 nM
